# According to US20140303185A1, “NOVEL POLYMORPHS OF VILAZODONE HYDROCHLORIDE” (ORCHID CHEMICALS & PHARMACEUTICALS LIMITED, priority 2013, published 2014):
# Counter-ions that a name gives are not always drawn.
# Experiment: Storage stability of Vilazodone HCl polymorphic forms
# Assay type: physicochemical
# Settings: for storage stability: at accelerated condition (tables 3 & 4)
# [1] = Stability at 40 ± 2° C. & 75 ± 5% RH, Final
# [2] = Stability at 40 ± 2° C. & 75 ± 5% RH, Final, hydrochloride
# [3] = Stability at 40 ± 2° C. & 75 ± 5% RH, Initial, hydrochloride
# [4] = Stability at 60 ± 2° C., Final, hydrochloride
# [5] = Stability at 60 ± 2° C., Initial, hydrochloride
Description [1],Purity [1] [%],Moisture content [2] [%],Moisture content [3] [%],Purity [3] [%],"Description (Stability at 60 ± 2° C., Final)",Moisture content [4] [%],Purity [4] [%],Moisture content [5] [%],Purity [5] [%],storage stability,Description [3],Description [5],Compound
white to off,99.60,1.29,1.10,99.65,white to off,0.76,99.65,1.10,99.65,good storage stability,,,"N#Cc1ccc2[nH]cc(CCCCN3CCN(c4ccc5oc(C(N)=O)cc5c4)CC3)c2c1 [Form A, 1-[4-(5-cyanoindol-3-yl)butyl]-4-(2-carbamoylbenzofuran-5-yl) piperazine hydrochloride]"
white to off,99.60,1.91,2.06,99.62,white to off,0.81,99.60,2.06,99.62,good storage stability,white to off,white to off,"N#Cc1ccc2[nH]cc(CCCCN3CCN(c4ccc5oc(C(N)=O)cc5c4)CC3)c2c1 [Form B, 1-[4-(5-cyanoindol-3-yl)butyl]-4-(2-carbamoylbenzofuran-5-yl) piperazine hydrochloride]"
